US10800791B2, “Triazole ACC inhibitors and uses thereof” (Gilead Apollo, LLC, priority 2015, dated 2020)
Values after ≈ are worked out from the molar mass of the structure shown. Read-outs that look alike come from different tables or passages of the source.

Experiments:
[1] = tested on: C. krusei; test: Antifungal Activity Assay (broth microtiter MIC), C. krusei; assay type: cell-based, Candida krusei; conditions: Pichia kudriavzevii, ATCC6258, 48 h
Summary of the method: (§1)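 CLSI M27-A3 microdilution; RPMI 1640+MOPS; 2.5×10^3 CFU/mL final inoculum; cultures from Sabouraud dextrose agar, 35° C overnight; compound working solution 128 μg/mL from 1 mg/mL DMSO stock; visual MIC at 48 h vs growth control.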

[2] = tested on: Fusarium virguliforme (Fv); test: Growth inhibition assay of fungal pathogens, Fv; assay type: cell-based; conditions: 48 h
Summary of the method: (§2)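 Inhibition percentages reflect 48 h OD600 and visual scores relative to a 2% DMSO control. Test concentrations were 50, 10, 2 ppm or 2, 0.4, 0.08 ppm final, applied to spores in 17% V8 medium.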

[3] = target: human (hACC2) (Homo sapiens, UniProt O00763); test: In vitro ACC inhibition assay (ADP-Glo), hACC2; assay type: biochemical; conditions: 5 nM ACC2, 20 μM ATP, 20 μM acetyl-CoA
Procedure: The detailed procedure is as follows. […] 10 μL ADP glo reagent was added. […] 20 μL kinase detection reagent was added.

[4] = tested on: C. parapsilosis; test: Antifungal Activity Assay (broth microtiter MIC), C. parapsilosis; assay type: cell-based, Candida parapsilosis; conditions: Lodderomyces parapsilosis, ATCC22019, 48 h
Summary of the method: as §1

[5] = tested on: Phytophthora capsici (Pc); test: Growth inhibition assay of fungal pathogens, Pc; assay type: cell-based; conditions: 48 h
Summary of the method: as §2

[6] = tested on: Septoria tritici (St); test: Growth inhibition assay of fungal pathogens, St; assay type: cell-based; conditions: Zymoseptoria tritici, 48 h
Summary of the method: as §2

[7] = target: fungal (fACC2) (UniProt Q00955); conditions: read-out: fACC2 (in vitro ACC2 Inhibition Assay, IC50), ADP-Glo, 5 nM ACC2, 20 μM ATP, 20 μM acetyl-CoA
[8] = tested on: Rhizoctonia solani (Rs); test: Growth inhibition assay of fungal pathogens, Rs; assay type: cell-based; conditions: 48 h
[9] = tested on: Fusarium moniliforme (Fm); test: Growth inhibition assay of fungal pathogens, Fm; assay type: cell-based; conditions: for IC90: Fusarium verticillioides, 48 h, read-out: Concentration at 90% Inhibition Fm
Summary of the method: as §2

[10] = tested on: Collectotrichum graminicola (Cg); test: Growth inhibition assay of fungal pathogens, Cg; assay type: cell-based; conditions: 48 h
Summary of the method: as §2

[11] = Table 3a, ATCC 6258, 3 replicates, MIC recorded at 48 h, read-out: MIC, C. krusei ATCC 6258
[12] = Table 3b (additional results), ATCC 6258, 3 replicates, MIC recorded at 48 h, read-out: MIC, C. krusei ATCC 6258
[13] = growth inhibition at 48 hours vs 2% DMSO control, read-out: Concentration at 90% Inhibition Fv
[14] = growth inhibition vs 2% DMSO control at 48 hours, read-out: Concentration at 90% Inhibition Fv
[15] = Table 3a, ATCC 22019, 3 replicates, MIC recorded at 48 h, read-out: MIC, C. parapsilosis ATCC 22019
[16] = Table 3b (additional results), ATCC 22019, 3 replicates, MIC recorded at 48 h, read-out: MIC, C. parapsilosis ATCC 22019
[17] = growth inhibition at 48 hours vs 2% DMSO control, read-out: Concentration at 90% Inhibition Pc
[18] = growth inhibition vs 2% DMSO control at 48 hours, read-out: Concentration at 90% Inhibition Pc
[19] = Septoria tritici, growth inhibition at 48 hours vs 2% DMSO control, read-out: Concentration at 90% Inhibition St
[20] = Septoria tritici, growth inhibition vs 2% DMSO control at 48 hours, read-out: Concentration at 90% Inhibition St
[21] = mycelial plugs, growth inhibition at 48 hours vs 2% DMSO control, read-out: Concentration at 90% Inhibition Rs
[22] = mycelial plugs, growth inhibition vs 2% DMSO control at 48 hours, read-out: Concentration at 90% Inhibition Rs
[23] = Fusarium moniliforme, growth inhibition at 48 hours vs 2% DMSO control
[24] = Fusarium moniliforme, growth inhibition vs 2% DMSO control at 48 hours
[25] = Collectotrichum graminicola, growth inhibition at 48 hours vs 2% DMSO control, read-out: Concentration at 90% Inhibition Cg
[26] = Collectotrichum graminicola, growth inhibition vs 2% DMSO control at 48 hours, read-out: Concentration at 90% Inhibition Cg
[27] = read-out: MIC, C. krusei ATCC 6258, Table 3a, 3 replicates, MIC recorded at 48 h
[28] = read-out: MIC, C. krusei ATCC 6258, Table 3b (additional results), 3 replicates, MIC recorded at 48 h
[29] = read-out: Concentration at 90% Inhibition Fv, Fusarium virguliforme, growth inhibition at 48 hours vs 2% DMSO control
[30] = read-out: Concentration at 90% Inhibition Fv, Fusarium virguliforme, growth inhibition vs 2% DMSO control at 48 hours
[31] = read-out: MIC, C. parapsilosis ATCC 22019, Table 3a, 3 replicates, MIC recorded at 48 h
[32] = read-out: MIC, C. parapsilosis ATCC 22019, Table 3b (additional results), 3 replicates, MIC recorded at 48 h
[33] = read-out: Concentration at 90% Inhibition Pc, Phytophthora capsici, growth inhibition at 48 hours vs 2% DMSO control
[34] = read-out: Concentration at 90% Inhibition Pc, Phytophthora capsici, growth inhibition vs 2% DMSO control at 48 hours
[35] = read-out: Concentration at 90% Inhibition St, Septoria tritici, growth inhibition at 48 hours vs 2% DMSO control
[36] = read-out: Concentration at 90% Inhibition St, Septoria tritici, growth inhibition vs 2% DMSO control at 48 hours
[37] = read-out: Concentration at 90% Inhibition Rs, Rhizoctonia solani, mycelial plugs, growth inhibition at 48 hours vs 2% DMSO control
[38] = read-out: Concentration at 90% Inhibition Rs, Rhizoctonia solani, mycelial plugs, growth inhibition vs 2% DMSO control at 48 hours
[39] = read-out: Concentration at 90% Inhibition Cg, Collectotrichum graminicola, growth inhibition at 48 hours vs 2% DMSO control
[40] = read-out: Concentration at 90% Inhibition Cg, Collectotrichum graminicola, growth inhibition vs 2% DMSO control at 48 hours

human (hACC2), sequence (O00763 whole entry): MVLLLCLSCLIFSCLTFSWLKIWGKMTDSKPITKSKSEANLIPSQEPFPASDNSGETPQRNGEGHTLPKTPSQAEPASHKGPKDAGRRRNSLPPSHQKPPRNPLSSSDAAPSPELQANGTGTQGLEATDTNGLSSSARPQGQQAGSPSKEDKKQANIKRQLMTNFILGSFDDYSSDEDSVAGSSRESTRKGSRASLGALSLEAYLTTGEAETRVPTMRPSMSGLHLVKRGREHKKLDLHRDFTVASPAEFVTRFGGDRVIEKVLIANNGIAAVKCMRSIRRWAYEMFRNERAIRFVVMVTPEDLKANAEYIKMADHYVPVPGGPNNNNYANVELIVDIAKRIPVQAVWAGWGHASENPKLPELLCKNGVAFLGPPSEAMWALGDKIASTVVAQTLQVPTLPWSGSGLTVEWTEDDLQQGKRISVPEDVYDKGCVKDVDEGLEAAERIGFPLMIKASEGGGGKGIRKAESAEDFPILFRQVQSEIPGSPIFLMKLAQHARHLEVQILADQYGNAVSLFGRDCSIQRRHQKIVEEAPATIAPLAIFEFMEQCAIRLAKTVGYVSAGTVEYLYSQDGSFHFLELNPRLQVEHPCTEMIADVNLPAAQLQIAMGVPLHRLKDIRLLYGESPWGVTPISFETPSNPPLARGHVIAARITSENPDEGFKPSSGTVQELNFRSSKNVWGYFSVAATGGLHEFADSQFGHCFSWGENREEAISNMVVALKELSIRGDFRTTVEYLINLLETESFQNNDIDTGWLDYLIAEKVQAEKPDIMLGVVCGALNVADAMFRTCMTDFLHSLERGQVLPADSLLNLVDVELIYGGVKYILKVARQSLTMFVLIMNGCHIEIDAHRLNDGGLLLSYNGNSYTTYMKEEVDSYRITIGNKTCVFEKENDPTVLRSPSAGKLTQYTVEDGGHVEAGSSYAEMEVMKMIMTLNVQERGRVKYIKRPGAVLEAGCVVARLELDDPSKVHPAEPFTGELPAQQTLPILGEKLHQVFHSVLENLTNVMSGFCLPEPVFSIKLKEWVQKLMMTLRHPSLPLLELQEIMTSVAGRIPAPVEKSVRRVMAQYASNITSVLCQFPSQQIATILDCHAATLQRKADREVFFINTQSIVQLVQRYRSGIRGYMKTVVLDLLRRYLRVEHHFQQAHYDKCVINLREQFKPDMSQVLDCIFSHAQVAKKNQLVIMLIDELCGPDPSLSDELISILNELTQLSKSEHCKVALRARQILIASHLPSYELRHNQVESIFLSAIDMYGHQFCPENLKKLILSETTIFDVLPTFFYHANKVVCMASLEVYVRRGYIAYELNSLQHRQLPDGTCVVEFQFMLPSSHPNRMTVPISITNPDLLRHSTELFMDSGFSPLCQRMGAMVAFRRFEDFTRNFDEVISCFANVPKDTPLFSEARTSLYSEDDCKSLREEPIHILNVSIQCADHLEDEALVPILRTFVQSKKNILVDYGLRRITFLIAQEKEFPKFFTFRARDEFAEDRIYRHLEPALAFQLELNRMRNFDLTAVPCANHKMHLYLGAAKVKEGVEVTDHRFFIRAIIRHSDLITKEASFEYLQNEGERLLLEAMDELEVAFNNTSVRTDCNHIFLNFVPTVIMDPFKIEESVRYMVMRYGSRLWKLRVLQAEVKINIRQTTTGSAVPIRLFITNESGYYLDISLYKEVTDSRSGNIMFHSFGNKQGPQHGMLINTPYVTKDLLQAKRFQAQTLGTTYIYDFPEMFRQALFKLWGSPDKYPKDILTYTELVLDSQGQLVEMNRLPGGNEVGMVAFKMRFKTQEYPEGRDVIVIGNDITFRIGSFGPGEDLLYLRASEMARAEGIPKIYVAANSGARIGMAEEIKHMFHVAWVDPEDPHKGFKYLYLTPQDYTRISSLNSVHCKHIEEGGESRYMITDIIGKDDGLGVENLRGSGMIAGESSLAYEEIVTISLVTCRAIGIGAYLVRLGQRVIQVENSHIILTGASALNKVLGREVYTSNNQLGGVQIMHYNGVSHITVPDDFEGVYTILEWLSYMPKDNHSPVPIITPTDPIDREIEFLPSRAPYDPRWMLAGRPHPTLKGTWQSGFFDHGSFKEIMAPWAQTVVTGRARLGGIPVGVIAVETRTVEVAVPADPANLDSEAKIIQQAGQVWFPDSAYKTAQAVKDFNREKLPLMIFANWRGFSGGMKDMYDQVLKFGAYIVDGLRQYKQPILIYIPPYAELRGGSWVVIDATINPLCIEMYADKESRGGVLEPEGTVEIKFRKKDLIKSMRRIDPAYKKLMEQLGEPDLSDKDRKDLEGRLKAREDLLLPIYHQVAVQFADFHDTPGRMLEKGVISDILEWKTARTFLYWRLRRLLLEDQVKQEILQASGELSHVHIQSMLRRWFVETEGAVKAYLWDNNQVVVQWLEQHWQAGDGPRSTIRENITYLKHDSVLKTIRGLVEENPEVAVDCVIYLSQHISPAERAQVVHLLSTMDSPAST
fungal (fACC2), sequence (Q00955 whole entry): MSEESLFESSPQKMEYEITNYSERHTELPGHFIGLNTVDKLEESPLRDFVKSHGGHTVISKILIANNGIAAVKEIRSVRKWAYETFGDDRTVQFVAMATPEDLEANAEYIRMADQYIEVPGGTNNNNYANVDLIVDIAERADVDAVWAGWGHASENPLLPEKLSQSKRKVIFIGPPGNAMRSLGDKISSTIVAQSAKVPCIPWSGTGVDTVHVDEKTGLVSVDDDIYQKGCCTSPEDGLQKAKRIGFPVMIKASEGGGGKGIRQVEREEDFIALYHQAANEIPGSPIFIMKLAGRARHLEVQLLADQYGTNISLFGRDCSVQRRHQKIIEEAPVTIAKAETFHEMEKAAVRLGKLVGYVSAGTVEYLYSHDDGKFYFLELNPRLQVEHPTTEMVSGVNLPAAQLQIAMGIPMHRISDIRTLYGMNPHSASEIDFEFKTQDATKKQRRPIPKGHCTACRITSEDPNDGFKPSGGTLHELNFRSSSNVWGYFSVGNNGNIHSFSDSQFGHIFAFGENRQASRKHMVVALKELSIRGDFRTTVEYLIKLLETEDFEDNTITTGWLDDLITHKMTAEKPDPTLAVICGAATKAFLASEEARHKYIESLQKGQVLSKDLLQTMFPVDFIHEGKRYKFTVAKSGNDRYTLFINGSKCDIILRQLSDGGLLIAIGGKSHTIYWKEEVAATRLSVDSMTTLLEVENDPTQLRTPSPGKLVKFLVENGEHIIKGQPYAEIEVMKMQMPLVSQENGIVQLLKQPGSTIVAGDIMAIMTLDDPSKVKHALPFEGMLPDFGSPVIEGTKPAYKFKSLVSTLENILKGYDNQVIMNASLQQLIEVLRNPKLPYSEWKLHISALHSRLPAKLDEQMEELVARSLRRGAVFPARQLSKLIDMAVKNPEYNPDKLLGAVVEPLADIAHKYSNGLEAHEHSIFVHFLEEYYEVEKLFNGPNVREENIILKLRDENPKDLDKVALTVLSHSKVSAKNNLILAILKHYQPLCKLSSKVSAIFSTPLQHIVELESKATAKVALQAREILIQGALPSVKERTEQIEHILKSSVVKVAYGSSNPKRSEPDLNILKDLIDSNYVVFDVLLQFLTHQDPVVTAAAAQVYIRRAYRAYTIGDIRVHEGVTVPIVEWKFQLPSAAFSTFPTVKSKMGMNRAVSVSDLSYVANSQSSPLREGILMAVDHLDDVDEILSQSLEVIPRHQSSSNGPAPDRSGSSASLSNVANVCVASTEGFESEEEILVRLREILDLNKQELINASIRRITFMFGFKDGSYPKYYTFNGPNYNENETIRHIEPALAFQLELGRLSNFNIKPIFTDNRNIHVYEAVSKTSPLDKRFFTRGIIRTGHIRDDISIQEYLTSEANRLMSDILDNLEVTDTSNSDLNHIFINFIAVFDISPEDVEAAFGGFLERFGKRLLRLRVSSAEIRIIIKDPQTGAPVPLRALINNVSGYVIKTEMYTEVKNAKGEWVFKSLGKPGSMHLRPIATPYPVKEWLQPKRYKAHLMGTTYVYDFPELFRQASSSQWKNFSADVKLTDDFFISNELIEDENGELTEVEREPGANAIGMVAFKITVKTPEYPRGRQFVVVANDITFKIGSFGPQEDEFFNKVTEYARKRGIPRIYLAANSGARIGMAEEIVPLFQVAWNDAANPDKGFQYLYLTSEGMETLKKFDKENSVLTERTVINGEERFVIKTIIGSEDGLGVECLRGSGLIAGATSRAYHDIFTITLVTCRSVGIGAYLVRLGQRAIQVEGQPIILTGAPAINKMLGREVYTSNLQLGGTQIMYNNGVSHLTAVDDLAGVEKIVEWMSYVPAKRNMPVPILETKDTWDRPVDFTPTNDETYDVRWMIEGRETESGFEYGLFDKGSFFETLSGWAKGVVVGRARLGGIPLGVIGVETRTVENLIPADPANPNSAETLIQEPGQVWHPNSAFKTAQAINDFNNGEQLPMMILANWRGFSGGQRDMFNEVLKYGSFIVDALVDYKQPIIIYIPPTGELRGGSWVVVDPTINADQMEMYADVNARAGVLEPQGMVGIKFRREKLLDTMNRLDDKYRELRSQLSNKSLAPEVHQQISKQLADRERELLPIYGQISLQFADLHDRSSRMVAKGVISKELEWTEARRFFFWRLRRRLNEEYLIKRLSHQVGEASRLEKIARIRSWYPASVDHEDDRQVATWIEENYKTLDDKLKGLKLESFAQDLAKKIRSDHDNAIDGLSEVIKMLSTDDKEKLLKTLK

SMILES | IC50 ([3]; Table 2a) [nM] | IC50 ([3]; Table 2b, additional results) [nM] | IC50 ([7]; Table 2a) [nM] | IC50 ([7]; Table 2b, additional results) [nM] | MIC [1, 27] [µg/mL] | MIC [1, 28] [µg/mL] | IC90 [2, 29] [µg/mL] | IC90 [2, 30] [µg/mL] | MIC [4, 31] [µg/mL] | MIC [4, 32] [µg/mL] | IC90 [5, 33] [µg/mL] | IC90 [5, 34] [µg/mL] | IC90 [6, 35] [µg/mL] | IC90 [6, 36] [µg/mL] | IC90 [8, 37] [µg/mL] | IC90 [8, 38] [µg/mL] | Concentration at 90% Inhibition Fm [9, 23] | IC90 [9] [µg/mL] | IC90 [10, 39] [µg/mL] | IC90 [10, 40] [µg/mL] | also measured
COc1ccc(F)cc1[C@H](Cn1c(=O)n(C(C)(C)C(=O)N2CCCC2)c(=O)c2c(C)c(-n3nccn3)sc21)OC[C@H](C)O [Compound I-48, 1-((R)-2-(5-fluoro-2-methoxyphenyl)-2-((S)-2-hydroxy-propoxy)ethyl)-5-methyl-3-(2-methyl-1-oxo-1-(pyrrolidin-1-yl)propan-2-yl)-6-(2H-1,2,3-triazol-2-yl)thieno[2,3-d]pyrimidine-2,4(1H,3H)-dione] | 5 to 10 | 5 to 10 | 0.4 to 1 | 0.3 to 1 | – | – | – | – | – | – | – | – | – | – | – | – | – | – | – | – | MIC [1, 11]: 1.1 to 2 µg/mL (≈ 1.79 to 3.25 µM); MIC [1, 12]: 2.01 to 4 µg/mL (≈ 3.27 to 6.51 µM); IC90 [2, 13]: 0.4 µg/mL (≈ 0.651 µM); IC90 [2, 14]: 0.4 µg/mL (≈ 0.651 µM); MIC [4, 15]: 2.1 to 4 µg/mL (≈ 3.42 to 6.51 µM); MIC [4, 16]: 1.01 to 2 µg/mL (≈ 1.64 to 3.25 µM); IC90 [5, 17]: > 50 µg/mL; IC90 [5, 18]: > 50 µg/mL; IC90 [6, 19]: > 50 µg/mL; IC90 [6, 20]: > 50 µg/mL; IC90 [8, 21]: 2 µg/mL (≈ 3.25 µM); IC90 [8, 22]: 10 µg/mL (≈ 16.3 µM); IC90 [9, 23]: 0.4 µg/mL (≈ 0.651 µM); IC90 [9, 24]: 0.4 µg/mL (≈ 0.651 µM); IC90 [10, 25]: 0.4 µg/mL (≈ 0.651 µM); IC90 [10, 26]: 0.4 µg/mL (≈ 0.651 µM)
COc1ccc(F)cc1[C@H](Cn1c(=O)n(C(C)(C)C(=O)N2CC=CC2)c(=O)c2c(C)c(-n3nccn3)sc21)OC1CCOCC1 [Compound I-62, (R)-3-(1-(2,5-dihydro-1H-pyrrol-1-yl)-2-methyl-1-oxopro-pan-2-yl)-1-(2-(5-fluoro-2-methoxyphenyl)-2-((tetrahydro-2H-pyran-4-yl)oxy)ethyl)-5-methyl-6-(2H-1,2,3-triazol-2-yl)thieno[2,3-d]pyrimidine-2,4(1H,3H)-dione] | 1 to 5 | 1 to 5 | 1 to 5 | 1 to 5 | – | – | – | – | – | – | – | – | – | – | – | – | – | – | – | – | MIC [1, 11]: 0.25 to 1 µg/mL (≈ 0.391 to 1.57 µM); MIC [1, 12]: 0.25 to 1 µg/mL (≈ 0.391 to 1.57 µM); IC90 [2, 13]: 0.4 µg/mL (≈ 0.626 µM); IC90 [2, 14]: 0.4 µg/mL (≈ 0.626 µM); MIC [4, 15]: 0.25 to 1 µg/mL (≈ 0.391 to 1.57 µM); MIC [4, 16]: 1.01 to 2 µg/mL (≈ 1.58 to 3.13 µM); IC90 [5, 17]: > 50 µg/mL; IC90 [5, 18]: > 50 µg/mL; IC90 [6, 19]: > 50 µg/mL; IC90 [6, 20]: > 50 µg/mL; IC90 [8, 21]: 0.08 µg/mL (≈ 0.125 µM); IC90 [8, 22]: 0.08 µg/mL (≈ 0.125 µM); IC90 [9, 23]: 0.08 µg/mL (≈ 0.125 µM); IC90 [9, 24]: 0.08 µg/mL (≈ 0.125 µM); IC90 [10, 25]: 0.4 µg/mL (≈ 0.626 µM); IC90 [10, 26]: 0.4 µg/mL (≈ 0.626 µM)
COc1ccc(F)cc1[C@H](Cn1c(=O)n(C(C)(C)C(=O)NC(C)C)c(=O)c2c(C)c(-n3nccn3)sc21)OC[C@@H](C)O [Compound I-45, 2-(1-((R)-2-(5-fluoro-2-methoxyphenyl)-2-((R)-2-hydroxypropoxy)ethyl)-5-methyl-2,4-dioxo-6-(2H-1,2,3-triazol-2-yl)-1,4-dihydro-thieno[2,3-d]pyrimidin-3(2H)-yl)-N-isopropyl-2-methylpropanamide] | 10 to 40 | 10 to 40 | 1 to 5 | 1 to 5 | 0.25 to 1 (≈ 0.415 to 1.66 µM) | 1.01 to 2 (≈ 1.68 to 3.32 µM) | 0.4 (≈ 0.664 µM) | 0.4 (≈ 0.664 µM) | 0.25 to 1 (≈ 0.415 to 1.66 µM) | 1.01 to 2 (≈ 1.68 to 3.32 µM) | 2 (≈ 3.32 µM) | 10 (≈ 16.6 µM) | 2 (≈ 3.32 µM) | 10 (≈ 16.6 µM) | 0.08 (≈ 0.133 µM) | 0.08 (≈ 0.133 µM) | AA (compound concentration of 0.08 ppm at 90% inhibition of fungal pathogens) | 0.08 (≈ 0.133 µM) | 0.4 (≈ 0.664 µM) | 0.4 (≈ 0.664 µM) | –
C=CCNC(=O)C(C)(C)n1c(=O)c2c(C)c(-n3nccn3)sc2n(C[C@H](OC2CCOCC2)c2cc(F)ccc2OC)c1=O [Compound I-70, (R)—N-allyl-2-(1-(2-(5-fluoro-2-methoxyphenyl)-2-((tetrahydro-2H-pyran-4-yl)oxy)ethyl)-5-methyl-2,4-dioxo-6-(2H-1,2,3-triazol-2-yl)-1,4-dihydrothieno[2,3-d]pyrimidin-3(2H)-yl)-2-methylpropanamide] | 1 to 5 | 1 to 5 | 1 to 5 | 1 to 5 | 0.25 to 1 (≈ 0.399 to 1.6 µM) | 0.25 to 1 (≈ 0.399 to 1.6 µM) | 0.4 (≈ 0.638 µM) | 0.4 (≈ 0.638 µM) | 0.25 to 1 (≈ 0.399 to 1.6 µM) | 1.01 to 2 (≈ 1.61 to 3.19 µM) | > 50 | > 50 | > 50 | > 50 | 0.4 (≈ 0.638 µM) | 0.4 (≈ 0.638 µM) | AA (compound concentration of 0.08 ppm at 90% inhibition of fungal pathogens) | 0.08 (≈ 0.128 µM) | 2 (≈ 3.19 µM) | 2 (≈ 3.19 µM) | –
COc1ccc(F)cc1[C@H](Cn1c(=O)n(C(C)(C)C(=O)N(C)C)c(=O)c2c(C)c(-n3nccn3)sc21)OC(C)C [Compound I-49, (R)-2-(1-(2-(5-fluoro-2-methoxyphenyl)-2-isopropoxy-ethyl)-5-methyl-2,4-dioxo-6-(2H-1,2,3-triazol-2-yl)-1,4-dihydrothieno[2,3-d]pyrimi-din-3(2H)-yl)-N,N,2-trimethylpropanamide] | 10 to 40 | 10 to 40 | 1 to 5 | 1 to 5 | 2.1 to 4 (≈ 3.67 to 6.98 µM) | 1.01 to 2 (≈ 1.76 to 3.49 µM) | 0.4 (≈ 0.698 µM) | 0.4 (≈ 0.698 µM) | 2.1 to 4 (≈ 3.67 to 6.98 µM) | > 4.01 | > 50 | > 50 | > 50 | > 50 | 0.4 (≈ 0.698 µM) | 0.4 (≈ 0.698 µM) | A (compound concentration of 0.4 ppm at 90% inhibition of fungal pathogens) | 0.4 (≈ 0.698 µM) | 10 (≈ 17.5 µM) | > 50 | –
